Test results reported in patent publication US20220401385A1, “Combination Therapy Based on PD-1 Signaling Inhibitors” (Kyoto University, priority 2019, published 2022).

How the values were obtained:
[1] = tested on: T cells; test: Function of oxidative phosphorylation in T cells (OCR, Seahorse); format: cell-based
Experimental: The function of oxidative phosphorylation in T cells may be measured as described below. Briefly, the oxygen consumption rate (OCR) of T cells is measured with an extracellular flux analyzer (Seahorse). Baseline OCR and the OCR for the case where carbonyl cyanide-4 (trifluoromethoxy) phenylhydrazone (FCCP), or a reagent that is activated to the maximum extent upon addition of a mitochondrial function terminating agent (oligomycin, Antimycine A/Rotenone: A/R), is added are compared and calculated (Divakaruni A S, Paradyse A, Ferrick D A, Murphy A N, Jastroch M. 2014. Analysis and Interpretation of Microplate-Based Oxygen Consumption and pH data. In Methods in Enzymology, Volume 547, Chapter 16, 309-354).
If, in the above-described measurement method, baseline OCR is increased, spare respiratory capacity (SRC) is increased, or mitochondrial ATP production rate (mitoATP) is increased, it may well be concluded that the function of oxidative phosphorylation in T cells has increased.

[2] = tested on: CD8+ T cells; test: Proliferation (3H uptake) of spleen CD8+ T cells of treated aged mice; format: in vivo; settings: 56-week old mice; SPD combination group; 20 hours CD3/CD28, 3H uptake
Experimental: FIG. 7 MC38 cells (5×10^5) were intradermally inoculated into 56-week old mice, which were treated along with the treatment schedule described in FIG. 1. PD-L1 antibody (2 mg/kg) and SPD (2 mg/kg) were used. a) Tumor growth curve and survival curve are shown. b) The frequency of CD8^+ T cells among lymphocytes infiltrating into tumor (in CD45^+ gate) and the absolute number of CD8^+ T cells per mg tumor 13 days after tumor inoculation are shown. c) CD8^+ T cells were isolated from spleen cells on the same schedule as b) and cultured for 20 hours under the stimulation with CD3/CD28. Cell proliferation was examined by means of ^3H uptake. d) CD8^+ T cells were isolated from draining lymph nodes on the same schedule as b) and glycolytic pathway-derived or mitochondrial metabolism-derived ATP production was calculated by Seahorse. e) Spare respiratory capacity (SRC) was also calculated in the experiment (d).
It is known from mouse model experiments that the effect of PD-1 inhibitory antibody therapy decreases in aged mice due to their decreased immunity. […] CD8^+ T cells were isolated from draining lymph nodes 13 days after tumor inoculation and glycolytic pathway-derived or mitochondrial metabolism-derived ATP production was calculated by Seahorse. Spare respiratory capacity (SRC) was also calculated. […]

[3] = tested on: LLC cells; test: LLC tumor model; format: in vivo, C57BL/6 mice; settings: SPD 4 mg/kg + PD-L1 antibody
Experimental: FIG. 2-2 a-b) MethA or CT26 cells were intradermally inoculated into BALB/c mice. Ten days after inoculation, PD-L1 antibody (2 mg/kg), PD-L1 antibody+SPD (1 mg/kg for Meth A, 4 mg/kg for CT26) or SPD alone was administered. c) LLC cells were intradermally inoculated into C57BL/6 mice. Ten days after inoculation, mice were treated in the same manner as described in a-b) above. SPD was administered at 4 mg/kg. d) MC38 cells were inoculated into C57BL/6 Rag2^−/− mice. Ten days after inoculation, mice were treated in the same manner as described in a-b) above. SPD was administered at 5 mg/kg. Tumor growth curve and survival curve are shown.

[4] = tested on: CD44 high CD8+ T cells; test: Mitochondria-related proteomics in vitro, CD44 high cells; format: cell-based, mice; settings: late phase, 44 hours after SPD stimulation
Experimental: FIG. 6 CD8^+ T cells were isolated from the spleen of mice without tumor inoculation, and further isolated into CD44^+ (CD44 high) and CD44^− (CD44 low) cell populations. CD44 low cells and CD44 high cells were simulated with CD3/CD28 antibody beads and SPD (0.2 μM). After 1 hour and 44 hours, cells were collected and proteomics analyses regarding mitochondria-related proteins were conducted. A heat map showing the categories of respective signaling pathways, associated protein names and comparison of their expression levels is given.
T cells were prepared by two methods. For in vivo analysis, 13 days after tumor inoculation and 3 days after the start of therapy, draining lymph nodes from 5 mice were pooled, followed by isolation of CD8^+ T cells. From the isolated CD8^+ T cells, three samples each consisting of 1×10^6 cells were prepared and used for analysis. For in vitro experiments, 2×10^5 CD8^+ T cells stimulated with 0.2 μM spermidine for 1 hour were used. For mass spectrometry analysis, a Tandem Mass Tag (TMT) system or a Data Independent Acquisition (DIA) system was used. In the analysis of in vivo CD8^+ T cells (FIG. 3), those proteins which increased by 1.5-fold or more or decreased by 0.6-fold or less were extracted.

With `NCCCCNCCCN` [SPD, spermidine] the “function of oxidative phosphorylation in T cells” value [1] was “increased”, the “proliferative activation of spleen CD8+ T cells” value [2] was “enhanced” and the “antitumor effect of PD-1 inhibitory antibody with SPD” value [3] was “exhibit the antitumor effect”. For the same compound, the “expression levels of mitochondrial proteins and proteins of mitochondria-related metabolism” value [4] was “high”.
